The values that follow come from patent US8097758B2, “Isoserine derivatives for use as coagulation factor IXa inhibitors” (Sanofi-Aventis, priority 2006, dated 2012).

The target in this test is T1, factor IXa (Homo sapiens, UniProt P00740).
T1 construct: purchased Calbiochem (Merck KGaA) 233290
In words: Factor IXa enzyme assay (chromogenic substrate PEFA 3107). Format: biochemical. The conditions noted are these: factor IXa 277 nM final, pH 7.4, 15 min preincubation at room temperature, read at 405 nm, duplicate determination. On the procedure: The prepared substances from the examples were tested for inhibition of the enzymatic activity of FIXa using the substrate PEFA 3107 (Pentapharm/Loxo; via S. Black GmbH, Baumstrasse 41, 47198 Duisburg, Germany; Pr. No. 095-20) and factor IXa (Calbiochem, Merck KGaA markets Calbiochem in Germany, Life Science & Analytics, 64293 Darmstadt; Pr. No. 233290). In this method, 28 μl of test buffer (50 mM α,α,α-tris(hydroxymethyl)methylamine (TRIS), 100 mM NaCl, 5 mM CaCl2, 0.1% bovine serum albumin, pH 7.4) and 10 μl of factor IXa (277 nM final concentration in the test batch) were added to 2 μl of 10 mM dimethyl sulfoxide solution of the respective test substance, and the mixture was incubated for 15 minutes at room temperature in a 96 half-well microtiter plate. The enzyme reaction was started by addition of 10 μl of substrate (1 mM stock solution in water). The time course of the reaction was monitored at 405 nm in a microtiter plate reader (SpectraMax plus 384; Molecular Devices) for 15 minutes.
The IC50 was calculated from the averaged values (duplicate determination) of a dilution series of the test substance with the aid of the software Grafit 4 (Erithacus Software, UK). The inhibition constants (Ki) were calculated according to the Cheng Prusoff equation Ki=IC50/(1+(S/Km), where S=concentration of the test substrate in the test and Km=Michaelis-Menten constant.

T1 sequence (P00740 227-461 limits assumed): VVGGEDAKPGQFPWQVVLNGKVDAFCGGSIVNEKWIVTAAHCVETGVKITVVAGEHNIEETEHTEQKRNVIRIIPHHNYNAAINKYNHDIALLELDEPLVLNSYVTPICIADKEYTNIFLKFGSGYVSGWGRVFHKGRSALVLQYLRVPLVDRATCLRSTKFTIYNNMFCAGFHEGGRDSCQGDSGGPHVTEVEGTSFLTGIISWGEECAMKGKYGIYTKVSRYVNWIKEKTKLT
T1 sequence (P00740 47-191 partner limits assumed): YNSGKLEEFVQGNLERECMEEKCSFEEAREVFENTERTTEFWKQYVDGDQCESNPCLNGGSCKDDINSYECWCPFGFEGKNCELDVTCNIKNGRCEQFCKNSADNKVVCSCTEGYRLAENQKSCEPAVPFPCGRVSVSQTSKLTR

Turning to `CC(C)c1ccc(C(=O)NC(c2ccccc2)C(O)C(=O)Nc2ccc3nc(N)[nH]c3c2)cc1` (stereo not drawn) [Example 17, N-[2-(2-Amino-3H-benzimidazol-5-ylcarbamoyl)-2-hydroxy-1-phenylethyl]-4-isopropylbenzamide], the IC50 was 280 nM. This lies in the sub-micromolar range.

In turn, `Nc1nc2ccc(NC(=O)C(O)C(NC(=O)c3ccc(N4CCOCC4)cc3)c3ccccc3)cc2[nH]1` (stereo not drawn) [Example 53, N-[2-(2-Amino-3H-benzimidazol-5-ylcarbamoyl)-2-hydroxy-1-phenylethyl]-4-morpholin-4-yl-benzamide] registered an IC50 of 1340 nM.

Consider `COc1cc(OC)cc(C(NC(=O)c2ccc(C(C)C)cc2)C(O)C(=O)Nc2ccc3nc(N)[nH]c3c2)c1` (stereo not drawn) [Example 134, N-[2-(2-Amino-3H-benzimidazol-5-ylcarbamoyl)-1-(3,5-dimethoxyphenyl)-2-hydroxyethyl]-4-iso-propylbenzamide], for which half-maximal inhibition (IC50) was put at 170 nM.

For `CCc1ccc(C(=O)NC(c2ccccc2)C(O)C(=O)Nc2ccc3nc(N)[nH]c3c2)s1` (stereo not drawn) [Example 68, 5-Ethylthiophene-2-carboxylic acid [2-(2-amino-3H-benzimidazol-5-ylcarbamoyl)-2-hydroxy-1-phenylethyl]amide], the IC50 came to 730 nM.

`Nc1nc2ccc(NC(=O)C(O)C(NC(=O)c3ccc(-c4cccs4)s3)c3ccccc3)cc2[nH]1` (stereo not drawn) [Example 81, [2,2′]Bithiophenyl-5-carboxylic acid [2-(2-amino-3H-benzimidazol-5-ylcarbamoyl)-2-hydroxy-1-phenylethyl]amide] registered an IC50 of 570 nM.

For `CCc1ccc(C(=O)NC(c2ccccc2)C(O)C(=O)Nc2ccc3c(N)nccc3c2)cc1` (stereo not drawn) [Example 87, N-[2-(1-Aminoisoquinolin-6-ylcarbamoyl)-2-hydroxy-1-phenylethyl]-4-ethylbenzamide], the half-maximal inhibitory concentration (IC50) worked out at 140 nM.

A word on the IC50: it is the concentration needed to halve the response being measured. Higher therefore signals lower potency.
